This passage reports kon results from paper PMC3759421, “Blocking Plasmodium falciparum Development via Dual Inhibition of Hemoglobin Degradation and the Ubiquitin Proteasome System by MG132” (PLoS ONE, 2013).

Molecules are shown by their SMILES. Peptide text beside a SMILES is read from it. * marks the point of attachment. Cbz = O=C(OCc1ccccc1)*

Assay [1] deals with T1, falcipain-2 (FP2) (Plasmodium falciparum, UniProt Q8I6U4).
T1 construct: gene FP2A; carboxy-terminus region of the prodomain (36 amino acid residues) and the entire mature protease domain
T1 sequence (Q8I6U4 208-484): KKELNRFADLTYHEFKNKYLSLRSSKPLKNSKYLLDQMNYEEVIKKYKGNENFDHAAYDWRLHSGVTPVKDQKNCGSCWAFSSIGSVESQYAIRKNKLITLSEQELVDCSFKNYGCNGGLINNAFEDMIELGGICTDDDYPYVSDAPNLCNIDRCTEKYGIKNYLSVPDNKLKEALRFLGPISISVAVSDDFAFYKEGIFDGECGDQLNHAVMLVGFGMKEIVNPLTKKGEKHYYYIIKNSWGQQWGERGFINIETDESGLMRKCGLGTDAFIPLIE
Description: biochemical. Conditions: read-out: FP2. Here is the method:
recombinant enzyme inhibition, Z-LR-AMC hydrolysis progress curves (association rate constant); active site titration on falcipain-2 (FP2) | Concentrations of active FP2 and FP3 were determined by active site titration using E64

In assay [2] the target is T2, falcipain-3 (FP3) (Plasmodium falciparum, UniProt Q8IIL0).
T2 construct: carboxy-terminus region of the prodomain (35 amino acid residues) and the entire mature protease domain
T2 sequence (Q8IIL0 208-492): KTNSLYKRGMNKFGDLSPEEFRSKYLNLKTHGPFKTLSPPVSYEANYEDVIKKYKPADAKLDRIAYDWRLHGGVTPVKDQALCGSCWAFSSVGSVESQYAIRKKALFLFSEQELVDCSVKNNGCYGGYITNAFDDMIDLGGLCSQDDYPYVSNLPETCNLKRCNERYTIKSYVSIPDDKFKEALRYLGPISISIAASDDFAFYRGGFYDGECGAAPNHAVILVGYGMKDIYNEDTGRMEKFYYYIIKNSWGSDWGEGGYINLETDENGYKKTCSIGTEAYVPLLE
Description: recombinant enzyme inhibition, Z-LR-AMC hydrolysis progress curves (association rate constant); active site titration. It counts as biochemical. To be noted: read-out: FP3. The source says: recombinant enzyme inhibition, Z-LR-AMC hydrolysis progress curves (association rate constant); active site titration on falcipain-3 (FP3) | MG132 and E64 inhibited hydrolysis of Z-LR-AMC by both enzymes (Figure 4B)

Assay [3] concerns the target T1, falcipain-2 (FP2). Description: recombinant enzyme inhibition, Z-LR-AMC hydrolysis progress curves (association rate constant). It counts as biochemical. Conditions: read-out: FP2.
Assay [4] has as its target T2, falcipain-3 (FP3). Described as above. Conditions: read-out: FP3. It counts as biochemical. The source says: recombinant enzyme inhibition, Z-LR-AMC hydrolysis progress curves (association rate constant) on falcipain-3 (FP3) | MG132 and E64 inhibited hydrolysis of Z-LR-AMC by both enzymes (Figure 4B), confirming that MG132 is a falcipain inhibitor

As to `CC(C)C[C@H](NC(=O)[C@H]1O[C@@H]1C(=O)O)C(=O)NCCCCN=C(N)N` [E64, L-trans-epoxysuccinyl-leucyl-amido(4-guanidino)butane], the kon in assay [1] stood at 10300 M⁻¹ s⁻¹; in assay [2] it was 4090 M⁻¹ s⁻¹.

Take `CC(C)C[C@@H](C=O)NC(=O)[C@H](CC(C)C)NC(=O)[C@H](CC(C)C)NC(=O)OCc1ccccc1` [MG132] (Cbz-Leu-Leu-Leu-aldehyde): the kon in assay [3] worked out at 189000 M⁻¹ s⁻¹; in assay [4], 412000 M⁻¹ s⁻¹.
